Experimental findings from patent US9115137B2, “2,3,4,5-tetrahydro-1H-pyrido[4,3-B]indole compounds and methods of use thereof” (priority 2008, dated 2015) are described below.

Structures are written as SMILES.

The target in assay [1] is T1, human recombinant histamine H1 receptor (Homo sapiens, UniProt P35367).
T1 construct: expressed in transfected cells; host or cells: CHO cells
As to the kind of experiment: Histamine H1 radioligand binding ([3H]Pyrilamine). As to conditions: compound at 1 μM; CHO cells; read-out: Histamine Binding (1 μM) H1, percent inhibition of specific binding. How it is done:
To evaluate in radioligand binding assays the activity of compounds of the invention, human recombinant histamine H1 receptor expressed in Chinese hamster ovary (CHO) cells (De Backer, M. D. et al., Biochem. Biophys. Res. Comm. 197(3):1601, 1993) in a modified Tris-HCl buffer (50 mM Tris-HCl, pH 7.4, 2 mM MgCl2, 100 mM NaCl, 250 mM Sucrose) was used. Compounds of the invention were incubated with 1.2 nM [^3H]Pyrilamine for 180 minutes at 25° C. Non-specific binding was estimated in the presence of 1 μM pyrilamine. Receptor proteins were filtered and washed, the filters were then counted to determine [^3H]Pyrilamine specifically bound. Compounds were screened at 1 μM, using 1% DMSO as vehicle. Biochemical assay results are presented as the percent inhibition of specific binding in Table 5.

The target of assay [2] is T2, human recombinant adrenergic α2B receptor (Homo sapiens, UniProt P18089).
T2 construct: expressed in transfected cells; host or cells: CHO-K1 cells
T2 sequence (P18089 1-450): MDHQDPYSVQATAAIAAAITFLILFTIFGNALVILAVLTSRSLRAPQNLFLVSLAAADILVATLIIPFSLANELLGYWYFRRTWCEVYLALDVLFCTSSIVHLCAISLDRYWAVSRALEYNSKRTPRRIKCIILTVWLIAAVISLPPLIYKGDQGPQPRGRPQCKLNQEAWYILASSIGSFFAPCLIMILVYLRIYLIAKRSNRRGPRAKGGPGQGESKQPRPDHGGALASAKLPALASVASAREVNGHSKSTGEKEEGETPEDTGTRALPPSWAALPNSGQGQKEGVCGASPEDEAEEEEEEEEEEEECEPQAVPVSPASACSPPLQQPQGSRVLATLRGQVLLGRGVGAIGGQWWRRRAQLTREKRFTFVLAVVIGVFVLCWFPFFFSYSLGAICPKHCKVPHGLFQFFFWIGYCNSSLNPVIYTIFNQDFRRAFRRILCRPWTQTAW
In words: Adrenergic α2B radioligand binding ([3H]Rauwolscine). To be noted: compound at 1 μM; CHO-K1 cells; read-out: Adrenergic (1 μM) α2B, percent inhibition of specific binding. How it is done:
To evaluate in radioligand binding assays the activity of compounds of the invention, human recombinant adrenergic α2B receptor expressed in Chinese hamster ovary (CHO-K1) cells (Uhlen S et al. Eur. J. Pharmacol. 343(1):93, 1998) in a modified Tris-HCl buffer (50 mM Tris-HCl, pH 7.4, 12.5 mM MgCl2, 1 mM EDTA, 0.2% BSA) was used. Compounds of the invention were incubated with 2.5 nM [3H]Rauwolscine for 60 minutes at 25° C. Non-specific binding was estimated in the presence of 10 μM Prozosin. Receptor proteins were filtered and washed, the filters were then counted to determine [^3H]Rauwolscine specifically bound. Compounds were screened at 1 μM or lower, using 1% DMSO as vehicle. Biochemical assay results are presented as the percent inhibition of specific binding in Table 6.

Assay [3] addresses T3, human recombinant adrenergic α1D receptor (Homo sapiens, UniProt P25100).
T3 construct: expressed in transfected cells; host or cells: HEK-293 cells
T3 sequence (P25100 1-572): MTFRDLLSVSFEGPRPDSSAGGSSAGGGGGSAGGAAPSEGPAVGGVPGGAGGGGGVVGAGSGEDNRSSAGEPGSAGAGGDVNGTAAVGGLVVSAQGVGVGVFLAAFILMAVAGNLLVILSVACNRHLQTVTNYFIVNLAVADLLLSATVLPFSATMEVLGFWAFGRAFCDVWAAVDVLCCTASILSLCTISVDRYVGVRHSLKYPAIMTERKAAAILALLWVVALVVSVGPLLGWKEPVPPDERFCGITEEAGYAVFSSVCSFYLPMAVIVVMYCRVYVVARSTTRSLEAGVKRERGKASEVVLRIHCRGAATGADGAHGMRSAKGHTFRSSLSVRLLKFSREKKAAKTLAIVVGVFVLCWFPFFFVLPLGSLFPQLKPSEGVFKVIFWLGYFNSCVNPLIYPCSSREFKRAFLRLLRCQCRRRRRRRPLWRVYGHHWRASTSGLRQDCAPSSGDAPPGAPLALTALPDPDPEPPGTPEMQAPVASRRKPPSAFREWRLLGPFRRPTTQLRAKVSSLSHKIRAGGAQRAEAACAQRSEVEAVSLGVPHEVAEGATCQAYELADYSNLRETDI
In words: Adrenergic α1D radioligand binding ([3H]Prozosin). As to conditions: compound at 1 μM; HEK-293 cells; read-out: Adrenergic (1 μM) α1D, percent inhibition of specific binding. The procedure:
To evaluate in radioligand binding assays the activity of compounds of the invention, human recombinant adrenergic α1D receptor expressed in human embryonic kidney (HEK-293) cells (Kenny, B. A. et al. Br. J. Pharmacol. 115(6):981, 1995) in a 50 mM Tris-HCl buffer, pH 7.4, was used. Compounds of invention were incubated with 0.6 nM [^3H]Prozosin for 60 minutes at 25° C. Non-specific binding was estimated in the presence of 10 μM phentolamine. Receptor proteins were filtered and washed, the filters were then counted to determine [^3H]Prozosin specifically bound. Compounds were screened at 1 μM or lower, using 1% DMSO as vehicle. Biochemical assay results are presented as the percent inhibition of specific binding in Table 6.

T1 sequence (P35367 whole entry): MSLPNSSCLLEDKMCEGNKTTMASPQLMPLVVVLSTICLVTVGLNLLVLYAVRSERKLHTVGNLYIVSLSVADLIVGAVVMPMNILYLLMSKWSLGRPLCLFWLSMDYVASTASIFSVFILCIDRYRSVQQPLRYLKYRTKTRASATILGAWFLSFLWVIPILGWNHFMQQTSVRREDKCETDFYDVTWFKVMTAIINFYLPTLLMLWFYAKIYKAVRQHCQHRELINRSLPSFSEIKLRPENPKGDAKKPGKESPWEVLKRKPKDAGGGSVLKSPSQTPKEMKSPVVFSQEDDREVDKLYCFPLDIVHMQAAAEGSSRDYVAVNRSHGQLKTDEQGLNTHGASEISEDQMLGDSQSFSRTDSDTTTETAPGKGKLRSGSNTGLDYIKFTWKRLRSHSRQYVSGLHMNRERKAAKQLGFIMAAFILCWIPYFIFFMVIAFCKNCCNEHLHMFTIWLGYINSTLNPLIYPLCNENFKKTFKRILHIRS

In the case of `CCOC(=O)Cn1c2c(c3cc(C)ccc31)CN(C)CC2` [CD57, ethyl 2-(1,2,3,4-tetrahydro-2,8-dimethylpyrido[4,3-b]indol-5-yl)acetate], the inhibition (as a rule, the drop in the measured response relative to a control, in per cent) at 1 µM worked out at 100% in assay [1], 65% in assay [2] and 39% in assay [3].
As for `CN1CCc2c(c3cc(Cl)ccc3n2CCC(=O)N(C)C)C1` [Compound 49, 3-(8-chloro-1,2,3,4-tetrahydro-2-methylpyrido[4,3-b]indol-5-yl)-N,N-dimethylpropanamide], the inhibition at 1 µM in assay [1] stood at 82%; in assay [2] it was 76%; in assay [3], 18%.
`Cc1ccc2c(c1)c1c(n2CCNC(=O)c2ccncc2C)CCN(C)C1` [Compound 69, N-(2-(1,2,3,4-tetrahydro-2,8-dimethylpyrido[4,3-b]indol-5-yl)ethyl)-3-methylpyridine-4-carboxamide]: the values for the inhibition at 1 µM in assay [1], in assay [2] and in assay [3] were 88%, 39% and 30%, respectively.
As to `Cc1ccc2c(c1)c1c(n2C2CCCCC2O)CCN(C)C1` (stereo not drawn) [Compound 73, 2-(1,2,3,4-tetrahydro-2,8-dimethylpyrido[4,3-b]indol-5-yl)cyclohexanol], the inhibition at 1 µM was 2% in assay [1], -2% in assay [2] and 6% in assay [3].
Taken in the same sequence, the figures for `Cc1ccc2c(c1)c1c(n2CCNC(=O)C2CCNCC2)CCN(C)C1` [Compound 65, N-(2-(1,2,3,4-tetrahydro-2,8-dimethylpyrido[4,3-b]indol-5-yl)ethyl)piperidine-4-carboxamide] were 34%, 12% and 11%.
Regarding `CN1CCc2c(c3cc(Cl)ccc3n2CC(=O)NC2CCCC2)C1` [Compound 27, 2-(8-chloro-1,2,3,4-tetrahydro-2-methylpyrido[4,3-b]indol-5-yl)-N-cyclopentylacetamide], the inhibition at 1 µM came out at 63% in assay [1], 35% in assay [2] and 18% in assay [3].
For `CN1CCc2c(c3cc(Cl)ccc3n2CC(=O)OC2CCCC2)C1` [Compound 15], the inhibition at 1 µM was determined as 99% in assay [1], 95% in assay [2] and 58% in assay [3].
`Cc1ccc2c(c1)c1c(n2CCC(=O)NC(C)C)CCN(C)C1` [Compound 53]: the inhibition at 1 µM in assay [1] amounted to 51%; in assay [2] it was 86%; in assay [3] it was 62%.
Consider `Cc1ccc2c(c1)c1c(n2CCC(=O)Nc2ccc(F)cc2)CCN(C)C1` [Compound 47, N-(4-fluorophenyl)-3-(1,2,3,4-tetrahydro-2,8-dimethylpyrido[4,3-b]indol-5-yl)propanamide], for which the results for the inhibition at 1 µM in assay [1], in assay [2] and in assay [3] were 90%, 96% and 80%, respectively.
In the same order, the values of `CN1CCc2c(c3cc(Cl)ccc3n2CCC(=O)OC2CCCC2)C1` [Compound 21, cyclopentyl 3-(8-chloro-1,2,3,4-tetrahydro-2-methylpyrido[4,3-b]indol-5-yl)propanoate] are 98%, 103% and 88%.
For `CN1CCc2c(c3cc(Cl)ccc3n2CC(=O)OCc2ccccc2)C1` [Compound 13, benzyl 2-(8-chloro-1,2,3,4-tetrahydro-2-methylpyrido[4,3-b]indol-5-yl)acetate], the inhibition at 1 µM in assay [1] was found to be 96%; in assay [2] it was 97%; in assay [3], 55%.
On to `Cc1ccc2c(c1)c1c(n2CC#N)CCN(C)C1` [CD61, 2-(1,2,3,4-tetrahydro-2,8-dimethylpyrido[4,3-b]indol-5-yl)acetonitrile], for which the inhibition at 1 µM in assay [1] was 98%; in assay [2], 89%; in assay [3], 74%.
